The target of one assay is Histone deacetylase 4 (Homo sapiens, UniProt P56524). Put plainly: Inhibition of human HDAC4 expressed in 293T cells. In kind it is cell-based.
The target in the next assay is Histone deacetylase 1 (Homo sapiens, UniProt Q13547). Put plainly: Inhibition of human HDAC1 expressed in 293T cells. In kind it is cell-based.
A further assay has as its system HeLa. Description: Induction of p21 expression in human HeLa cells after 24 hrs. In kind it is functional.
For assay [1], the target named is T1, Protein deacetylase HDAC6 (Homo sapiens, UniProt Q9UBN7).
T1 sequence (Q9UBN7 whole entry): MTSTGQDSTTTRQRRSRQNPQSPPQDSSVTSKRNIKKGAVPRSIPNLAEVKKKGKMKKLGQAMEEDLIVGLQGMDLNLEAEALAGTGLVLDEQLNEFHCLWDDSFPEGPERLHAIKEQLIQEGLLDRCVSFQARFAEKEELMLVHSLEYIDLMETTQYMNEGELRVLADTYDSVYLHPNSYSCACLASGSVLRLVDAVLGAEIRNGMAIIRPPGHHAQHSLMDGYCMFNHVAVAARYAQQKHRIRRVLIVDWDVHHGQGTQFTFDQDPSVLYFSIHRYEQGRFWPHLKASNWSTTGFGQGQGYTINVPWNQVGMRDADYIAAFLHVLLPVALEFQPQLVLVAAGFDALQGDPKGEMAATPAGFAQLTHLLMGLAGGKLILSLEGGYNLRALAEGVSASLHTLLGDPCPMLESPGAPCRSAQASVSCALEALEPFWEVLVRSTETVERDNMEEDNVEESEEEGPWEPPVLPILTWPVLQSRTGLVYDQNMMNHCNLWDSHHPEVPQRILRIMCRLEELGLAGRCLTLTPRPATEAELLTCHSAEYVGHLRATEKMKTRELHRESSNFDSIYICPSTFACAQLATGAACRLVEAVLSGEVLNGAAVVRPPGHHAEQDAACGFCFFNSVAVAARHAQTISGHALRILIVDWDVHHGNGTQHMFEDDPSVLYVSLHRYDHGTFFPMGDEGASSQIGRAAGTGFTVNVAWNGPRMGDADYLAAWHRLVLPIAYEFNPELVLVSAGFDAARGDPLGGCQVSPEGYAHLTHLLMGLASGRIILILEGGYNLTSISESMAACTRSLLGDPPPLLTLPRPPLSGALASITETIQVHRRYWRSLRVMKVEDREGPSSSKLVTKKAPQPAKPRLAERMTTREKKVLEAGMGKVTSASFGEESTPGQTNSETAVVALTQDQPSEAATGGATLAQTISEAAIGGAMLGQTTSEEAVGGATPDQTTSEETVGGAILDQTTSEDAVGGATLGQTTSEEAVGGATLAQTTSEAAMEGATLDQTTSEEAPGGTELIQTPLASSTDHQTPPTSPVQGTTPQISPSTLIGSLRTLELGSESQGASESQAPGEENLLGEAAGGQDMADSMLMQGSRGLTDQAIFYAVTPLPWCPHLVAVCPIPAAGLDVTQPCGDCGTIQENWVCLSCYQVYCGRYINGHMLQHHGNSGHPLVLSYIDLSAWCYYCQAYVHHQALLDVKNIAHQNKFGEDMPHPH
Description: Inhibition of human HDAC6 expressed in 293T cells. Type of assay: cell-based.

The species entered for another assay is Mus musculus. Description: Antiangiogenic activity in mouse induced pluripotent stem cells. Type of assay: functional.

Usually IC50 stands for the concentration that gives 50% inhibition.

Bounds are passed on as bounds.

Chain of Histone deacetylase 1 (Q13547 whole entry): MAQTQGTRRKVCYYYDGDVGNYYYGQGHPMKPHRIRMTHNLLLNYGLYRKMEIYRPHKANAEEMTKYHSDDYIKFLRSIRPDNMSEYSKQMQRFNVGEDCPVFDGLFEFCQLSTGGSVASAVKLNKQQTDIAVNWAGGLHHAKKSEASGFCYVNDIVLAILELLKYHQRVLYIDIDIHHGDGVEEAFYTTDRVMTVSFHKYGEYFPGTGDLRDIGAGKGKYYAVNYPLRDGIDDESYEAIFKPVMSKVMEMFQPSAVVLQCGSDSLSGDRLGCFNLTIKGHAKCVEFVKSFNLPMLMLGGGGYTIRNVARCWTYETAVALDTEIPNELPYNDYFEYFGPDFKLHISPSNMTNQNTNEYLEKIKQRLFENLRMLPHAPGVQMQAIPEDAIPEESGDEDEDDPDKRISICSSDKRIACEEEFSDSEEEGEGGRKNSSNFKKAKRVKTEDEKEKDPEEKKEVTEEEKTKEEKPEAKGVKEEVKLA
Chain of Histone deacetylase 4 (P56524 whole entry): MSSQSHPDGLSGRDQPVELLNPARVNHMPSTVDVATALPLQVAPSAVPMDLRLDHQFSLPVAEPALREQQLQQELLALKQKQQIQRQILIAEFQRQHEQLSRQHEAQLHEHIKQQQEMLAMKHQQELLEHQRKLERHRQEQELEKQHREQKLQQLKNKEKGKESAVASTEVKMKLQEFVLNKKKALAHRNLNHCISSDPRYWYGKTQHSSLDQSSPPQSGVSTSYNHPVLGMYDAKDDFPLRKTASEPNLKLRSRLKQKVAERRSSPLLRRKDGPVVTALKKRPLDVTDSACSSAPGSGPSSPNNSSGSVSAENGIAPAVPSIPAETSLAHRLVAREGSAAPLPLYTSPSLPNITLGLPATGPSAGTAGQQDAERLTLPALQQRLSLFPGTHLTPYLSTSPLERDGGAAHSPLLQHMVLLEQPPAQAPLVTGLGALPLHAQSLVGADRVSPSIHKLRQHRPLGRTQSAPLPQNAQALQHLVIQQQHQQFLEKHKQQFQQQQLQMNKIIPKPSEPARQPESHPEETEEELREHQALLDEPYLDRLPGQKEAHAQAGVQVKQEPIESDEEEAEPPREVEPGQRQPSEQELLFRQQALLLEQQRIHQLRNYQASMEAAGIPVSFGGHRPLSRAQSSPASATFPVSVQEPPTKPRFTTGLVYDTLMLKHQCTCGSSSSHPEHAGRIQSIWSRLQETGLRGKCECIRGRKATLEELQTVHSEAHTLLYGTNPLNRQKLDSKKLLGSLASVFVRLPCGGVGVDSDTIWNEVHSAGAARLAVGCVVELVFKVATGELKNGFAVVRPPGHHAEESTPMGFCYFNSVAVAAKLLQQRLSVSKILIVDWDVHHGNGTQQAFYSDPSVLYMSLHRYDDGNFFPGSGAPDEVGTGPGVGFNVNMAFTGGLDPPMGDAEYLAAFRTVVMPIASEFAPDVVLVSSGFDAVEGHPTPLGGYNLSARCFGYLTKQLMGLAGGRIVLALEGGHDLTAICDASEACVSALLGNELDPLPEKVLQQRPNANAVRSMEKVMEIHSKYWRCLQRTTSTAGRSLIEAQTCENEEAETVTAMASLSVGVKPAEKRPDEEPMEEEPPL

In the case of `CC(C)[C@H]1NC(=O)[C@@H](C)[C@@H](C/C=C\CCC(N)=O)NC(=O)[C@@H](Cc2ccccc2)NC(=O)[C@@H](C)NC1=O` [AZUMAMIDE A], the IC50 (on Histone deacetylase 4; on Histone deacetylase 1; in assay [1]) was greater than 50 µM each time. The EC1000 in the assay on HeLa was greater than 25 µM.
`CC(/C=C/C(=O)NO)=C\[C@@H](C)C(=O)c1ccc(N(C)C)cc1` [TRICHOSTATIN] showed an EC1000 in the assay with HeLa of 0.0115 µM.
As for `CC(C)[C@H]1NC(=O)[C@@H](C)[C@@H](C/C=C\CCC(=O)O)NC(=O)[C@@H](Cc2ccccc2)NC(=O)[C@@H](C)NC1=O` [AZUMAMIDE E], the IC50 is 2.28 µM at Histone deacetylase 4 and greater than 50 µM in assay [1]. This compound came in with an EC1000 with HeLa of 17 µM. Besides, the Activity entry in the assay listed under Mus musculus was “Dose-dependent effect”.
As to `CC(C)[C@H]1NC(=O)[C@@H](C)[C@@H](C/C=C\CCC(N)=O)NC(=O)[C@@H](Cc2ccc(O)cc2)NC(=O)[C@@H](C)NC1=O` [AZUMAMIDE B], the IC50 is 3.66 µM at Histone deacetylase 4, 1.83 µM against Histone deacetylase 1 and greater than 50 µM in assay [1]. In addition, the EC1000 in the assay with HeLa was greater than 25 µM.
`C[C@@H]1C(=O)N[C@H](C)C(=O)N[C@H](C)C(=O)N[C@H](Cc2ccccc2)C(=O)N[C@@H]1C/C=C\CCC(N)=O` [AZUMAMIDE D]: the IC50 (against Histone deacetylase 4; against Histone deacetylase 1; in assay [1]) was greater than 50 µM throughout. The EC1000 in the assay on HeLa was greater than 25 µM.
`CC(C)[C@H]1NC(=O)[C@@H](C)[C@@H](C/C=C\CCC(=O)O)NC(=O)[C@@H](Cc2ccc(O)cc2)NC(=O)[C@@H](C)NC1=O` [AZUMAMIDE C]: the IC50 at Histone deacetylase 4 is 3.16 µM; at Histone deacetylase 1 it was 1.17 µM; in assay [1], greater than 50 µM. This compound also came in with an EC1000 with HeLa greater than 25 µM.

For the origin of these results see ChEMBL document CHEMBL1145603, “Evaluation of antiangiogenic activity of azumamides by the in vitro vascular organization model using mouse induced pluripotent stem (iPS) cells” (Bioorg Med Chem Lett, 2008).
